Data reported in patent US11999746B2, “Compounds” (GlaxoSmithKline Intellectual Property Development Limited, priority 2014, dated 2024).

Biological target: T1, Lp-PLA2 in human plasma (Homo sapiens, UniProt Q13093)
T1 construct: from tissue; host or cells: pooled human plasma
T1 sequence (Q13093 22-441): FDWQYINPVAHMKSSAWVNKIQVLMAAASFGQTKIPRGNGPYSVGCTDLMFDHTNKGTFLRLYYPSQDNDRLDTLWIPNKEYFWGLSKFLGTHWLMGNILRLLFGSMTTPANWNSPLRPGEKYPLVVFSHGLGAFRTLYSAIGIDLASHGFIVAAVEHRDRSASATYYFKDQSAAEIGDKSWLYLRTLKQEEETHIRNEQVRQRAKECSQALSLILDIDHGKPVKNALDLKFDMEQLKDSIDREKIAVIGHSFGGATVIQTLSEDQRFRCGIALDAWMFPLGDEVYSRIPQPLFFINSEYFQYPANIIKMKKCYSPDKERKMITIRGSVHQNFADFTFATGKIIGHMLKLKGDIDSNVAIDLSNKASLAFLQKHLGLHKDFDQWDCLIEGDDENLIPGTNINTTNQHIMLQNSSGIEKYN
Assay: (3a) Lp-PLA2 human plasma Thio-PAF assay
Type: biochemical
Settings: (3a) Thio-PAF assay, pooled human plasma; Examples 1-265 and 413-430 were tested here; read-out: pIC50 in the Lp-PLA2 human plasma assay (converted)
Description: (3) Lipoprotein-Associated Phospholipase A2 (Lp-PLA2) Human Plasma Assay
The human plasma assay utilizes a thioester analog of PAF (phosphatidylcholine), where hydrolysis yields to the formation of a phospholipid containing a free thiol group. The amount of thiol is quantitated continuously by reacting with CPM (7-diethylamino-3-(4′-maleimidylphenyl)-4-methylcoumarin), a maleimide which increases in fluoresence after Michael addition of thiols. This assay may detect the activity of Lp-PLA2 in human plasma, as determined by specific inhibition by Lp-PLA2 inhibitors.
The thio-PAF assay was run as a quenched 15 μL assay. Compounds source plate was prepared by making 1:3 (by volume) serial dilution of the compounds into pure DMSO on 384-well microplate. 0.01 μL of compounds on compound source plate were transferred to 384 well Greiner 784076 (black) low-volume plates by ECHO liquid dispenser. 8 μL pooled human plasma, which was previously aliquoted and frozen, was added. Plates were centrifuged for 10 sec at 500 rpm. After 30 minutes preincubation, 2 μL of substrate solution comprising 2.5 mM 2-thio-PAF [from ethanol stock], 32 μM CPM [from a DMSO stock] and 3.2 mM NEM (N-ethylmaleimide) [made fresh daily in DMSO] in assay buffer of 50 mM HEPES, pH 7.4, 150 mM NaCl, 1 mM CHAPS was added to 384 well Greiner 784076 (black) low-volume plates by BRAVO liquid handling station. After 2 mins, reaction was quenched with 5 μL of 5% aqueous trifluoroacetic acid (TFA). Plates were covered to protect from light and incubated for 40 min at room temperature. Plates were read at ex: 380/em: 485 using Envision microplate reader. PIC50 data, curve and QC analysis were conducted by using XLFit module in Excel.

IC50, ≤ 10 µM:
Cn1cc(Oc2c(F)cc(COc3cc4n(c(=O)n3)CC3OCCN43)cc2F)cn1 (single isomer, unassigned) [Example E189, 6-((3,5-difluoro-4-((1-methyl-1H-pyrazol-4-yl)oxy)benzyl)oxy)-10,10a-dihydro-2H-oxazolo[3′,2′:3,4]imidazo[1,2-c]pyrimidin-8(3H)-one]
O=c1nc(OCc2ccc(F)cc2F)cc2n1C[C@H]1COCN21 [Example E168, (S)-6-((2,4-difluorobenzyl)oxy)-10,10a-dihydro-1H-oxazolo[3′,4′:3,4]imidazo[1,2-c] pyrimidin-8(3H)-one]
O=c1nc(OCc2cccc(F)c2F)cc2n1C[C@H]1COCN21 [Example E169, (S)-6-((2,3-difluorobenzyl)oxy)-10,10a-dihydro-1H-oxazolo[3′,4′:3,4]imidazo[1,2-c]pyrimidin-8(3H)-one]
O=c1nc(OCc2cccc(F)c2)cc2n1C[C@@H]1COCN21 [Example E171, (R)-6-((3-fluorobenzyl)oxy)-10,10a-dihydro-1H-oxazolo[3′,4′:3,4]imidazo[1,2-c]pyrimidin-8(3H)-one]
O=c1nc(OCc2cccc(F)c2F)cc2n1C[C@@H]1COCN21 [Example E172, (R)-6-((2,3-difluorobenzyl)oxy)-10,10a-dihydro-1H-oxazolo[3′,4′:3,4]imidazo[1,2-c] pyrimidin-8(3H)-one]
O=c1nc(OCc2cc(F)c(F)cc2F)cc2n1C[C@H]1COCN21 [Example E173, (S)-6-((2,4,5-trifluorobenzyl)oxy)-10,10a-dihydro-1H-oxazolo[3′,4′:3,4]imidazo[1,2-c] pyrimidin-8(3H)-one]
O=c1nc(OCc2ccc(F)cc2F)cc2n1C[C@@H]1COCN21 [Example E174, (R)-6-((2,4-difluorobenzyl)oxy)-10,10a-dihydro-1H-oxazolo[3′,4′:3,4]imidazo[1,2-c]pyrimidin-8(3H)-one]
O=c1nc(OCc2cc(F)c(F)cc2F)cc2n1C[C@@H]1COCN21 [Example E175, (R)-6-((2,4,5-trifluorobenzyl)oxy)-10,10a-dihydro-1H-oxazolo[3′,4′:3,4]imidazo[1,2-c] pyrimidin-8(3H)-one]
O=c1nc(OCc2cc(F)cc(F)c2)cc2n1C[C@@H]1COCN21 [Example E176, (R)-6-((3,5-difluorobenzyl)oxy)-10,10a-dihydro-1H-oxazolo[3′,4′:3,4]imidazo[1,2-c] pyrimidin-8(3H)-one]
O=c1nc(OCc2ccc(F)cc2F)cc2n1C[C@H]1CCOCN21 [Example E177, (R)-3-((2,4-difluorobenzyl)oxy)-8,9,9a,10-tetrahydropyrimido[6′,1′:2,3]imidazo[1,5-c][1,3] oxazin-1(6H)-one]
O=c1nc(OCc2ccc(F)cc2F)cc2n1C[C@@H]1CCOCN21 [Example E180, (S)-3-((2,4-difluorobenzyl)oxy)-8,9,9a,10-tetrahydropyrimido[6′,1′:2,3]imidazo[1,5-c][1,3]oxazin-1(6H)-one]
O=c1nc(OCc2cc(F)c(F)cc2F)cc2n1C[C@@H]1CCOCN21 [Example E181, (S)-3-((2,4,5-trifluorobenzyl)oxy)-8,9,9a,10-tetrahydropyrimido[6′,1′:2,3]imidazo[1,5-c][1,3]oxazin-1(6H)-one]
O=c1nc(OCc2cc(F)cc(F)c2)cc2n1C[C@@H]1CCOCN21 [Example E182, (S)-3-((3,5-difluorobenzyl)oxy)-8,9,9a,10-tetrahydropyrimido[6′,1′:2,3]imidazo[1,5-c][1,3] oxazin-1(6H)-one]
O=c1nc(OCc2cccc(F)c2F)cc2n1C[C@@H]1CCOCN21 [Example E183, (S)-3-((2,3-difluorobenzyl)oxy)-8,9,9a,10-tetrahydropyrimido[6′,1′:2,3]imidazo[1,5-c][1,3] oxazin-1(6H)-one]
O=c1nc(OCc2cc(F)cc(F)c2)cc2n1CC1OCCN21 (stereo not shown) [Example E184, 6-((3,5-Difluorobenzyl)oxy)-10,10a-dihydro-2H-oxazolo[3′,2′:3,4]imidazo[1,2-c]pyrimidin-8 (3H)-one]
O=c1nc(OCCc2cccc(F)c2)cc2n1C[C@H]1COCN21 [Example E186, (S)-6-(3-fluorophenethoxy)-10,10a-dihydro-1H-oxazolo[3′,4′:3,4]imidazo[1,2-c]pyrimidin-8(3H)-one]
O=c1nc(OCc2cccc(F)c2F)cc2n1CC1OCCN21 (stereo not shown) [Example E187, 6-((2,3-Difluorobenzyl)oxy)-10,10a-dihydro-2H-oxazolo[3′,2′:3,4]imidazo[1,2-c]pyrimidin-8(3H)-one]
O=c1nc(OCc2cc(F)c(F)c(F)c2)cc2n1CC1OCCN21 (stereo not shown) [Example E188, 6-((3,4,5-Trifluorobenzyl)oxy)-10,10a-dihydro-2H-oxazolo[3′,2′:3,4]imidazo[1,2-c]pyrimidin-8(3H)-one]
N#Cc1ccc(CCOc2cc3n(c(=O)n2)C[C@H]2COCN32)cc1 [Example E191, (S)-4-(2-((8-oxo-3,8,10,10a-tetrahydro-1H-oxazolo[3′,4′:3,4]imidazo[1,2-c]pyrimidin-6-yl)oxy)ethyl)benzonitrile]
O=c1nc(OCc2cc(F)c(OC3(CCF)CC3)c(F)c2)cc2n1C[C@@H]1COCN21 [Example E193, (R)-6-((3,5-difluoro-4-(1-(2-fluoroethyl)cyclopropoxy)benzyl)oxy)-10,10a-dihydro-1H-oxazolo[3′,4′:3,4]imidazo[1,2-c]pyrimidin-8(3H)-one]
O=c1nc(OCc2cc(F)c(OC3(CCF)CC3)c(F)c2)cc2n1C[C@H]1CCOCN21 [Example E195, (R)-3-((3,5-difluoro-4-(1-(2-fluoroethyl)cyclopropoxy)benzyl)oxy)-8,9,9a,10-tetrahydropyrimido[6′,1′:2,3]imidazo[1,5-c][1,3]oxazin-1(6H)-one]
O=c1nc(OCc2cc(F)c(OC3(CCF)CC3)c(F)c2)cc2n1C[C@H]1COCN21 [Example E197, (S)-6-((3,5-difluoro-4-(1-(2-fluoroethyl)cyclopropoxy)benzyl)oxy)-10,10a-dihydro-1H-oxazolo[3′,4′:3,4]imidazo[1,2-c]pyrimidin-8(3H)-one]
Cn1cc(Oc2c(F)cc(COc3cc4n(c(=O)n3)CC3OCCCN43)cc2F)cn1 (stereo not shown) [Example E200, 7-((3,5-Difluoro-4-((1-methyl-1H-pyrazol-4-yl)oxy)benzyl)oxy)-3,4,11,11a tetrahydropyrimido[6′,1′:2,3]imidazo[5,1-b][1,3]oxazin-9(2H)-one]
O=c1nc(OCc2ccc(CN3CCCC(F)(F)C3)c(F)c2)cc2n1C[C@@H]1CCCCN21 [Example E205, (S)-3-((4-((3,3-difluoropiperidin-1-yl)methyl)-3-fluorobenzyl)oxy)-6,7,8,9,9a,10-hexahydro-1H-pyrido[1′,2′:3,4]imidazo[1,2-c]pyrimidin-1-one]
O=c1nc(OCc2cc(F)c(OC3CCC(F)(F)CC3)c(F)c2)cc2n1C[C@@H]1CCCN21 [Example E206, (S)-3-((4-((4,4-difluorocyclohexyl)oxy)-3,5-difluorobenzyl)oxy)-7,8,8a,9-tetrahydropyrrolo[1′,2′:3,4]imidazo[1,2-c]pyrimidin-1(6H)-one]
